# Measurements as given in US11919932B2, “HMGN partial peptide and cancer therapy using the same” (The University of Tokyo, priority 2018, dated 2024).
# Experiments:
# [1] = system: Colon26 large intestine cancer cells; assay: Colon26 tumor-bearing mice, HMGN peptide in combination with anti-PD-L1 antibody, tumor volume; assay type: in vivo, mouse; settings: for anti-tumor effect compared with Pep1 (FIG. 11) / anti-tumor effect, tumor volume 24 days after tumor implantation (FIG. 11): same molar dose as 300 ng of Pep1; for anti-tumor effect, tumor volume 24 days after tumor implantation (FIG. 11): vs anti-PD-L1 antibody single administration group; for tumor growth (time-dependent change in tumor volume, FIG. 7): Pep1 60 and 300 ng/mouse, other peptides three equimolar doses, common ratio 5 (Pep1core 8 to 200 ng/mouse); for growth of Colon26 solid tumor, tumor volume 26 days after tumor cell implantation (FIG. 5, FIG. 6): peptide equimolar to Pep1 300 ng/mouse (two doses, common ratio 5, for Pep1ΔN2 and Pep1 mutant), vs anti-PD-L1 alone
# Source text: (§1) Seven-week-old male BALB/c mice were used in groups of 8 mice, and Colon26 large intestine cancer cells were subcutaneously transplanted into the right flank at 2×10^5 cells/mouse.
# (§2) An anti-mouse PD-L1 antibody (clone 10F.9G2) and an anti-mouse CD4 depleting antibody (clone GK1.5) were purchased from BioXcell.
# (§3) The HMGN peptide was intraperitoneally administered at a dose described below four times in total at 9, 14, 17 and 20 days after tumor cell implantation. The anti-mouse PD-L1 antibody was intraperitoneally administered at 200 μg/mouse four times in total at 4, 8, 14 and 18 days after tumor cell implantation. The anti-mouse CD4 antibody was intraperitoneally administered at a dose of 200 μg/mouse twice in total at 5 and 9 days after tumor cell implantation. The long diameter and short diameter of the solid tumor were measured every 3 to 4 days, and tumor volume was calculated by the following calculation formula. Tumor volume (mm^3)=(Long diameter; mm)×(Short diameter; mm)^2×0.5236
# [2] = system: Colon26 large intestine cancer cells; assay: Colon26 tumor-bearing mice, HMGN peptide single administration, tumor volume; assay type: in vivo, mouse; settings: Pep1 alone; vs control group
# Experimental: as §1, §3
# A partial fragment (human HMGN1 NBD peptide 1; Pep1, SEQ ID NO: 3) of human HMGN1 (SEQ ID NO: 17) corresponding to mPep1 was prepared and administered to Colon26 tumor-bearing mice alone or in combination with an anti-PD-L1 antibody (200 μg/mouse), and the anti-tumor effect was investigated.
# [3] = system: Colon26 large intestine cancer cells; assay: Colon26 tumor-bearing mice, HMGN peptide in combination with anti-CD4 antibody, tumor volume; assay type: in vivo; settings: Pep1 800 ng/mouse + anti-CD4 antibody 200 μg/mouse
# Source text: as §1, §2, §3
# The partial peptide of human HMGN1, Pep1 (800 ng/mouse), was administered to Colon26 tumor-bearing mice in combination with an anti-CD4 antibody (200 μg/mouse), and the anti-tumor effect was investigated.
# [4] = + anti-PD-L1 antibody 200 μg/mouse
substance,measurement,setting,value
"HMGN5 NBD-peptide (GQGDMRQEPKRRSARLSAMLVPVTPEVKPKRTSSSRKMKTKSD; Human HMGN5 NBD-peptide (N5Pep)) [PepN5, partial region containing NBD of human HMGN5]",anti-tumor effect compared with Pep1 (FIG. 11),[1]; + anti-PD-L1 antibody,at the same level as Pep1
same,"anti-tumor effect, tumor volume 24 days after tumor implantation (FIG. 11)",[1]; + anti-PD-L1 antibody,significant anti-tumor effects
Human HMGN1 NBD-peptide 1 (SSAEGAAKEEPKRRSARLSAKPPAKVEAKPKKAAAKD; Human HMGN1 NBD-peptide 1 (Pep1)),"growth of Colon26 solid tumor, tumor volume 23 days after tumor implantation (FIG. 3)",[2],significantly suppressed growth of Colon26 solid tumor in a dose-dependent manner
same,"Colon26 solid tumor growth (FIG. 12, FIG. 13; tumor volume 24 days after implantation)",[3],synergistically suppressed Colon26 solid tumor growth
same,anti-tumor effect (FIG. 3),"[1]; 3 ng/mouse and 30 ng/mouse, + anti-PD-L1 antibody",effective
same,"tumor growth (time-dependent change in tumor volume, FIG. 7)",[1]; [4],synergistically suppressed tumor growth
same,"tumor growth (FIG. 3, FIG. 4)",[1]; Pep1 + anti-PD-L1 antibody 200 μg/mouse,synergistically suppressed tumor growth
same,potency difference in the anti-tumor action between PepO and Pep1,[1]; both + anti-PD-L1 antibody,≥ 300 times
same,"growth of Colon26 solid tumor, tumor volume 26 days after tumor cell implantation (FIG. 5, FIG. 6)",[1]; [4],significantly suppressed
Human HMGN1 NBD-peptide 1 core (EPKRRSARLSAKPPAKVEAKPKK; Human HMGN1 NBD-peptide1 core (Pep1core)) [10th to 32nd residues of Pep1],"tumor growth (time-dependent change in tumor volume, FIG. 7)",[1]; [4],suppressed in a dose-dependent manner
same,"tumor volume 27 days after implantation, difference from anti-PD-L1 antibody single administration group (FIG. 8)","[1]; doses of 40 and 200 ng/mouse, + anti-PD-L1 antibody",significant difference was observed
"Human HMGN1 NBD-peptide 1 mutant (SAEGAAKEEPKDDSADLSAKPPAKVEAKPKKAAAKD; Human HMGN1 NBD-peptide 1 mutant (Pep1 mutant)) [R→D mutant of Pep1, N-terminal 1 residue removed]","growth of Colon26 solid tumor, tumor volume 26 days after tumor cell implantation (FIG. 5, FIG. 6)",[1]; [4],same anti-tumor action as Pep1
"Human HMGN1 NBD-peptide 1 Δ C1 (SSAEGAAKEEPKRRSARLSAKPPAKVEAKPKK; Human HMGN1 NBD-peptide 1 delta-C1 (Pep1 delta-C1)) [Pep1ΔC1, C-terminal 5 residues of Pep1 removed]",complete regression of solid tumors,"[1]; dose of 53 ng, + anti-PD-L1 antibody",1 case
same,complete regression of solid tumors,"[1]; doses of 11 and 265 ng/mouse, + anti-PD-L1 antibody",3 cases out of 8 cases
same,"growth of Colon26 solid tumor, tumor volume 26 days after tumor cell implantation (FIG. 5, FIG. 6)",[1]; [4],significantly suppressed
"Human HMGN1 NBD-peptide 1 Δ C2 (SSAEGAAKEEPKRRSARLSAKPPAKVEA; Human HMGN1 NBD-peptide 1 delta-C2 (Pep1 delta-C2)) [Pep1ΔC2, C-terminal 9 residues of Pep1 removed]","growth of Colon26 solid tumor, tumor volume 26 days after tumor cell implantation (FIG. 5, FIG. 6)",[1]; [4],ineffective
"Human HMGN1 NBD-peptide 1 Δ C (SSAEGAAKEEPKRRSARLSAKPPA; Human HMGN1 NBD-peptide 1 delta-C (Pep1 delta-C)) [Pep1 ΔC, C-terminal 13 residues of Pep1 removed]","growth of Colon26 solid tumor, tumor volume 26 days after tumor cell implantation (FIG. 5, FIG. 6)",[1]; [4],anti-tumor effect of the peptide was lost
"Human HMGN1 NBD-peptide 1 Δ N1 (AAKEEPKRRSARLSAKPPAKVEAKPKKAAAKD; Human HMGN1 NBD-peptide 1 delta-N1 (Pep1 delta-N1)) [Pep1ΔN1, N-terminal 5 residues of Pep1 removed]","Colon26 solid tumor growth (FIG. 5, FIG. 6)","[1]; doses of 53 and 267 ng/mouse, + anti-PD-L1 antibody 200 μg/mouse",significantly suppressed
"Human HMGN1 NBD-peptide 1 Δ N2 (EPKRRSARLSAKPPAKVEAKPKKAAAKD; Human HMGN1 NBD-peptide 1 delta-N2 (Pep1 delta-N2)) [Pep1ΔN2, N-terminal 9 residues of Pep1 removed]","tumor growth (time-dependent change in tumor volume, FIG. 7)",[1]; [4],synergistic effect
same,solid tumors completely regressed,"[1]; dose of 9.4 ng/mouse, + anti-PD-L1 antibody",4 cases out of 8 cases
same,"growth of Colon26 solid tumor, tumor volume 26 days after tumor cell implantation (FIG. 5, FIG. 6)",[1]; [4],similarly suppressed solid tumors
"Human HMGN1 NBD-peptide 1 Δ N3 (SARLSAKPPAKVEAKPKKAAAKD; Human HMGN1 NBD-peptide 1 delta-N3 (Pep1 delta-N3)) [Pep1ΔN3, N-terminal 14 residues of Pep1 removed]","growth of Colon26 solid tumor, tumor volume 26 days after tumor cell implantation (FIG. 5, FIG. 6)",[1]; [4],ineffective
"Human HMGN1 peptide O (KEEPKRRSARLSAKPPAKVEAKPKKAAAKDKSSDKK; Human HMGN1 peptide O (PepO)) [known HMGN peptide of U.S. Pat. No. 8,227,417, reference compound]",complete regression of solid tumors,"[1]; 954 ng/mouse, + anti-PD-L1 antibody 200 μg/mouse",3 mice
same,"anti-tumor effect, tumor volume 24 days after tumor implantation (FIG. 9, FIG. 10)","[1]; dose of 318 ng/mouse (equimolar to Pep1 300 ng/mouse), + anti-PD-L1 antibody 200 μg/mouse",no anti-tumor effect
same,"tumor growth, tumor volume 24 days after tumor implantation (FIG. 9, FIG. 10)","[1]; triple dose of 954 ng/mouse, + anti-PD-L1 antibody 200 μg/mouse",significantly suppressed tumor growth
Human HMGN2 NBD-peptide [PepN2],anti-tumor effect compared with Pep1 (FIG. 11),[1]; + anti-PD-L1 antibody,at the same level as Pep1
same,"anti-tumor effect, tumor volume 24 days after tumor implantation (FIG. 11)",[1]; + anti-PD-L1 antibody,significant anti-tumor effects
Human HMGN3 NBD-peptide [PepN3],"anti-tumor effect, tumor volume 24 days after tumor implantation (FIG. 11)",[1]; + anti-PD-L1 antibody,no anti-tumor effect
Human HMGN4 NBD-peptide [PepN4],anti-tumor effect compared with Pep1 (FIG. 11),[1]; + anti-PD-L1 antibody,at the same level as Pep1
same,"anti-tumor effect, tumor volume 24 days after tumor implantation (FIG. 11)",[1]; + anti-PD-L1 antibody,significant anti-tumor effects
mouse HMGN1 NBD-peptide 2 (VQIKGKRGAKGKQADVADQQTTELPAENGETENQSPASEE; mouse HMGN1 NBD-peptide 2 (mPep2)) [region at the C-terminal side of mouse HMGN1 NBD],tumor volume 24 days after Colon26 tumor cell implantation (FIG. 2),"[1]; doses of 30, 300 ng/mouse (mPep2 same molar number), + anti-PD-L1 antibody, vs control group",ineffective
same,"tumor growth (time-dependent change in tumor volume, FIG. 1)","[1]; mPep1 30 or 300 ng/mouse, mPep2 33 or 330 ng/mouse, i.p. four times, + anti-PD-L1 antibody 200 μg/mouse",no combined effect
